# Assay results taken from patent US5043328A, “Formulations containing unsaturated fatty acids for the synthesis of prostaglandins and hydroxy-fatty acids in biological systems” (priority 1986, dated 1991).
# Where two headings read alike, the source gives them in different places.
# What was measured:
# [1] = Storage of sodium arachidonate solution at room temperature for 6 weeks; type: physicochemical; conditions: water; solution without additions, after 6 weeks at room temperature; read-out: arachidonic acid content
# Experimental: 50 mg of sodium arachidonate, 500 mg of bovine serum albumin and 500 mg of L-tyrosine are dissolved under sterile conditions in 10 ml of twice distilled water and, likewise under sterile conditions, stored in a brown bottle. 93.5% of the arachidonic acid originally present are recovered after 6 weeks' storage at room temperature, whereas the same sodium arachidonate solution without additions virtually no longer contain any arachidonic acid after this time (content <0.8). The stabilized solution prepared in this way
# [2] = for Stability (% of remaining arachidonic acid by Method 1): 24 h 37° C.
# Experimental: Method 1: Investigation of the Stability of Unsaturated Fatty Acids in the Formulations
# The stabilizing action of substances on polyunsaturated fatty acids was investigated as follows:
# Test A for Water-Soluble Substances:
# 0.125 mg of unsaturated fatty acid or Na salt (see tables) (sodium arachidonate, from Sigma, Munich, Germany) is dissolved in 0.05 ml of water. 0.2 ml of aqueous solution which contains 2 mg of stabilizer and can additionally contain 2 mg of stimulator is mixed in (cf. Table 1), 0.1 ml is then taken out immediately, extracted and analysed (see below). Further processing according to modification 1 or 2.
# Modification 1 for Aqueous Solutions
# After 24 hours incubation at 37° C., 0.1 ml is again taken, extracted and analysed (see below).
# Modification 2 for Solid Mixtures (Lyophilisates)
# The test solution is lyophilized, the lyophilisate is incubated for 24 hours at 37° C. and then dissolved again in the previous quantity of water, and 0.1 ml is taken, extracted and analysed (see below).
# Test B for Water-Insoluble Substances:
# 0.125 mg of unsaturated fatty acid (arachidonic acid, 5,8,11,14,17-eicosapentaenoic acid or 8,11,14-eicosatrienoic acid, from Sigma, Munich) is dissolved in 0.05 ml of ethanol or dimethyl sulfoxide. 0.2 ml of ethanol (or dimethyl sulfoxide) which contains 2 mg of stabilizer and can additionally contain 2 mg of the stimulator (cf. Table 1) is added thereto, and 0.1 ml is taken immediately and, as below, extracted and analysed. Further treatment according to modification 1 or 2.
# Modification 1 for Solutions
# After 24 hours' incubation at 37° C., 0.1 ml is again taken, mixed with 0.1 ml of water, extracted and analysed.
# Modification 2 for Solid Mixtures
# The remaining solution is freed of solvent, incubated for 24 hours at 37° C. and then dissolved again in 0.15 ml of solvent, and 0.1 ml is taken, mixed with 0.1 ml of water, extracted and analysed.
# 0.05 ml of 1.2M aqueous citric acid solution is added to the samples obtained, and the samples are extracted with twice 0.5 ml of ethyl acetate, the ethyl acetate is removed from the combined extracts and the residue is dissolved in 0.8 ml of methanol and analysed by means of high-pressure liquid chromatography (HPLC) (Rad Pak C-18 column, 100×8 mm, from Waters, Konigstein, Germany, 1.5 ml/minute, solvent 800 ml of methanol, 200 ml of water and 0.1 ml of glacial acetic acid). The separation is monitored with a commercially available UV detector at 206 nm.
# The prostaglandins PGE2, PGF2 alpha and PGD2 as products from arachidonic acid where quantified by means of method 2, and the sum was related as "total prostaglandin" to 100%. The quantity of "total prostaglandin" formed without the addition of a stimulator was set at f=1; the quantity formed after stimulation was related thereto. f=2 or f=3 therefore means twice or three times the stimulation under the conditions of method 2. The stability of the sample was investigated by means of method 1 (right-hand column). […] Values greater than 25-28% therefore represent a stabilization, and values smaller than 25-28% represent a destabilization. Example No. 1 was carried out without a stimulator.
# [3] = target: T1, enzyme (from seminal vesicles of sheep) (Ovis aries, UniProt P05979); conditions: for relative total prostaglandin f: seminal vesicle enzyme, 10 min, pH 8
# T1 sequence (P05979 25-600): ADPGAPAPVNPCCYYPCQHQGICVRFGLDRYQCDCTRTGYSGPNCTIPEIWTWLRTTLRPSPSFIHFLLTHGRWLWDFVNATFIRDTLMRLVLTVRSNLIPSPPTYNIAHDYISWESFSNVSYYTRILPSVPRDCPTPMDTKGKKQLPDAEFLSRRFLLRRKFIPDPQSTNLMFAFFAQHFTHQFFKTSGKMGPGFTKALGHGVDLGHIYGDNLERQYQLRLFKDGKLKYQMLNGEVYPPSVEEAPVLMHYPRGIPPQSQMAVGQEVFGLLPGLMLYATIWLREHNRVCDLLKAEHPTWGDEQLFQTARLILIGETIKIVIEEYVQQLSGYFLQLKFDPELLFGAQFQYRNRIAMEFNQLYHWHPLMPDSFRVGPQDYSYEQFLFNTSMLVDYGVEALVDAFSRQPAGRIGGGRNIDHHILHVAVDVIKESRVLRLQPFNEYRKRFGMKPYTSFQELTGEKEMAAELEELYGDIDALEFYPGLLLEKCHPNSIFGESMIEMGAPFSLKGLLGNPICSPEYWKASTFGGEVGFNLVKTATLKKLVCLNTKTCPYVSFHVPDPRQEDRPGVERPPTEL
# [4] = Table 1, share of total prostaglandin (=100%)
# [5] = Table 2, share of total prostaglandin
smiles,measurement,setting,value
CCCCC/C=C\C/C=C\C/C=C\C/C=C\CCCC(=O)O [sodium arachidonate],remaining at 1008 h,[1],< 0.8%
"O=C(O)CCCCC1CCSS1 (stereo not drawn) [Example 36, Lipoic acid]",undesired decomposition / byproducts of polyunsaturated fatty acid (arachidonic acid) with added stimulator,"[2]; aqueous medium, result in words",fully suppressed
same,PGD2 %,[3]; [4],8%
same,PGE2 %,[3]; [4],43%
same,PGF2alpha %,[3]; [4],49%
same,stimulation of prostaglandin synthesis with much smaller quantities of undesired byproducts,"[3]; mixtures with polyunsaturated fatty acids such as arachidonic acid, result in words",stimulated
NCCc1c[nH]c2ccc(O)cc12 [Example 22],Stability (% of remaining arachidonic acid by Method 1),[2]; A) aqueous solution without stabilizer addition,16%
same,Stability (% of remaining arachidonic acid by Method 1),[2]; B) ethanolic solution without further addition,99%
same,Stability (% of remaining arachidonic acid by Method 1),"[2]; E) like B) with lecithin, ethanol stripped off",96%
same,Stability (% of remaining arachidonic acid by Method 1),[2]; F) like A) with cytochrome c from horse heart,98%
same,Stability (% of remaining arachidonic acid by Method 1),[2]; K) like J) with cytochrome c,98%
same,Stability (% of remaining arachidonic acid by Method 1),[2]; L) like J) with hemoglobin (human),100%
same,PGD2 %,[3]; [4],20%
same,PGE2 %,[3]; [4],75%
same,PGF2alpha %,[3]; [4],5%
same,relative total prostaglandin f,[3],10.6
"O=C(CCc1ccc(O)cc1)c1c(O)cc(O)cc1O[C@@H]1O[C@H](CO)[C@@H](O)[C@H](O)[C@H]1O [Example 53, Phlorizin]",Stabilization (% remaining unsaturated fatty acid by Method 1),[2]; 1440 min,97%
same,PGD2 %,[3]; [5],18%
same,PGE2 %,[3]; [5],80%
same,PGF2alpha %,[3]; [5],2%
same,relative total prostaglandin f,[3],3
